Laboratory results from patent US20200038479A1, “WOUND HEALING AGENT HAVING ANTIMICROBIAL ACTIVITY AND WOUND HEALING ACCELERATING ACTIVITY” (MARUHA NICHIRO CORPORATION, priority 2016, published 2020).
Entries after “also recorded” stand apart in the source; their conditions may differ.

Legend:
Staphylococcus aureus [1] = assay: Antimicrobial activity test (JIS L 1902:2015 / ISO 20743) on standard cloth; assay type: cell-based; details: cultured 37° C. for 18 to 24 hours
Excerpt: The antimicrobial activity of the protamine component can be evaluated based on an antimicrobial activity value described in “JIS L 1902:2015 Textiles—Determination of antibacterial activity and efficacy of textile products” (ISO 20743), and when a target material has an antimicrobial activity value of 2.0 or more, it can be determined to have the antimicrobial activity.
A standard cloth was cut into an appropriate size with a mass of 0.40 g±0.05 g. Sterile water (a control sample) and each of the test sample solutions (protamine hydrochloride: manufactured by Maruha Nichiro Corporation, protamine sulfate: manufactured by Maruha Nichiro Corporation, silver sulfate: manufactured by Wako Pure Chemical Industries Ltd.) were prepared and filtered, separately.
A Staphylococcus aureus suspension was inoculated by 0.2 mL each in separate several portions on each test piece. Immediately after the inoculation, 20 mL of a saline for washing out was added to some vials for washing out Staphylococcus aureus cells, and then a viable cell count was measured. The rest of the vials without washing-out was cultured at 37° C.±2° C. for 18 to 24 hours. After the cultivation, 20 mL of a saline for washing out was added to each vial for washing out Staphylococcus aureus cells, and then a viable cell count was measured. In accordance with the formula (1), an antimicrobial activity value was calculated, and a sample having an antibacterial activity value of 2.0 or more was determined as having the antimicrobial activity.
A=(log Ct−log C0)−(log Tt−log T0) Formula (1)
A: antibacterial activity value log Ct: arithmetic average common logarithm of viable cell count in a control sample obtained after cultivation for 18 to 24 hours log C0: arithmetic average common logarithm of viable cell count in a control sample obtained immediately after inoculation log Tt: arithmetic average common logarithm of viable cell count in a test sample obtained after cultivation for 18 to 24 hours log T0: arithmetic average common logarithm of viable cell count in a test sample obtained immediately after inoculation

[2] = system: full-thickness skin incision wound; assay: Healing test, full-thickness skin incision wound; assay type: in vivo, rat; details: 1.25% by mass on substrate, changed daily, day 1 to 4 of observation, compared with control group and silver sulfate group
Procedure: A substrate (Jintan Medicare sterile pad T, manufactured by Morishita Jintan Co., Ltd.) was prepared, and each of filtered test solutions (protamine hydrochloride, protamine sulfate and silver sulfate) was homogeneously applied to each substrate to obtain a solid content of the active ingredient of 1.25% by mass. In a flank region on either side of an eight-week-old BrlHan: WIST@Jcl (GALAS) rat (four rats used in each test group), a full-thickness skin incision wound with a size of 2.5 cm×2.5 cm was created.
The substrate and the dressing were changed once every day, the incision wound was photographed with a digital camera at the time of the change, and then, an area of the wound was obtained by using image analysis software (Image J, National Institutes of Health, USA). Assuming that the area of the wound on the day of creating the wound (day 0 of observation) was 100%, an area ratio (%) of the wound on each observation date was obtained.

Staphylococcus aureus [3] = assay: Examination of sterilization treatment: antimicrobial activity test after EOG or γ-ray sterilization; assay type: cell-based; details: 1.25% by mass
Procedure: A protamine hydrochloride powder and a protamine sulfate powder were respectively enclosed in sterilization bags (roll bag for IDS, manufactured by Hogy Medical Co., Ltd.). For a control group (not treated), the sterilization treatment was not performed, and the rest was subjected to the EOG sterilization (EOG concentration: 20%, sterilization time: 4 hours, temperature: 55° C.) and the γ-ray sterilization (30 kGy). The standard cloth was cut into an appropriate size with a mass of 0.40 g±0.05 g. Each of the test powders (protamine hydrochloride and protamine sulfate) was dissolved in sterile water, separately, and then the resultant was filtered. […] A Staphylococcus aureus suspension was inoculated by 0.2 mL each in separate several portions on each test piece. Immediately after the inoculation, 20 mL of a saline for washing out was added to some vials for washing out Staphylococcus aureus cells, and then a viable cell count was measured. The rest of the vials without washing-out was cultured at 37° C.±2° C. for 18 to 24 hours. After the cultivation, 20 mL of a saline for washing out was added to each vial for washing out Staphylococcus aureus cells, and then a viable cell count was measured.

[4] = 0.125% by mass on standard cloth
[5] = 1.25% by mass on standard cloth
[6] = EOG Sterilization (20%, 4 hours, 55° C.)

| Molecule | Antibacterial Activity Value (Staphylococcus aureus [1]; [4]) | Antibacterial Activity Value (Staphylococcus aureus [1]; [5]) | wound healing accelerating effect (area ratio of the wound) [2] | Antibacterial Activity Value (Staphylococcus aureus [3]; [6]) | Antibacterial Activity Value (Staphylococcus aureus [3]; Not Treated) | Antibacterial Activity Value (Staphylococcus aureus [3]; γ-ray Sterilization (30 kGy)) | wound healing accelerating effect (area ratio of the wound) ([2]; hydrochloride) |
| --- | --- | --- | --- | --- | --- | --- | --- |
| O=S(=O)([O-])[O-].[Ag+].[Ag+] [Silver Sulfate, silver sulfate, reference compound] | ≥2.0 | ≥2.0 | the wound healing accelerating effect was found in protamine hydrochloride and protamine sulfate alone |  |  |  |  |
| protamine sulfate | ≥2.0 | ≥2.0 | exhibit a wound healing accelerating effect; also recorded: an effect of accelerating wound healing was observed | ≥2.0 | ≥2.0 | ≥2.0 |  |
| protamine hydrochloride | ≥2.0 | ≥2.0 |  | ≥2.0 | ≥2.0 | ≥2.0 | exhibit a wound healing accelerating effect; also recorded: an effect of accelerating wound healing was observed |
